Activity calls are given as the source filed them. No cut-off for these calls is given here.
Experiments:
Mus musculus [1] = experiment: Anxiolytic effect in ICR mouse assessed as […] in time spent on open arm at 2.0 mg/kg, ip administered 1 hr before by elevated plus-maze test; assay type: functional, organism-based; parameters: dose 2 mg/kg
Mus musculus [2] = experiment: Anxiolytic effect in ICR mouse assessed as […] in entries of open arm at 2.0 mg/kg, ip administered 1 hr before by elevated plus-maze test; assay type: functional, organism-based; parameters: dose 2 mg/kg
Mus musculus [3] = experiment: Anxiolytic effect in ICR mouse assessed as increase in number of entries on open arm at 15 mg/kg, ip administered 1 hr before by elevated plus-maze test; assay type: functional; settings: route intraperitoneal
Mus musculus [4] = experiment: Anxiolytic effect in ICR mouse assessed as increase in time spent on open arm at 15 mg/kg, ip administered 1 hr before by elevated plus-maze test; assay type: functional; settings: route intraperitoneal
Mus musculus [5] = experiment: Anxiolytic effect in ICR mouse assessed as increase in time spent on open arm at 1.0 mg/kg, ip administered 1 hr before by elevated plus-maze test; assay type: functional, organism-based; parameters: dose 1 mg/kg
Mus musculus [6] = experiment: Anxiolytic effect in ICR mouse assessed as increase in entries of open arm at 1.0 mg/kg, ip administered 1 hr before by elevated plus-maze test; assay type: functional, organism-based; parameters: dose 1 mg/kg

| Structure (SMILES) | Activity (Mus musculus [3]) [%] | Activity (Mus musculus [4]) [%] | other results |
| --- | --- | --- | --- |
| C=C(C)[C@@H]1[C@H]2OC(=O)[C@@H]1[C@]1(O)C[C@H]3OC34C(=O)O[C@H]2[C@@]41C.CC(C)(O)[C@@H]1[C@H]2OC(=O)[C@@H]1[C@]1(O)C[C@H]3OC34C(=O)O[C@H]2[C@@]41C (stereo not given in full) |  |  | Activity (Mus musculus [1]): Active; Activity (Mus musculus [2]): Active |
| COC(=O)CC[C@H]1[C@]2(C)CC[C@@]3(C(=O)OC)[C@]4(O)CC(C)=CC[C@]4(C)CC[C@]3(C)[C@H]2[C@H](O)[C@H](O)[C@]1(CO)[C@@H](C)O | 61.8 | 76.8 |  |
| COC(=O)[C@@]12CC[C@@]3(C)[C@@H]4C=CC(=O)OC[C@]4([C@@H](C)O)[C@@H](O)[C@@H](O)[C@@H]3[C@@]1(C)CC[C@@]1(C)CC=C(C)C[C@]12O [GALPHIMINE A] | 76.8 | 68.3 |  |
| CN1C(=O)CN=C(c2ccccc2)c2cc(Cl)ccc21 |  |  | Activity (Mus musculus [5]): Active; Activity (Mus musculus [6]): Active |
| COC(=O)[C@@]12CC[C@@]3(C)[C@@H]4C=CC(=O)OC[C@]4([C@@H](C)O)C[C@@H](O)[C@@H]3[C@@]1(C)CC[C@@]1(C)CC=C(C)C[C@]12O [GALPHIMINE B] | 72.5 | 76.3 |  |

From ChEMBL document CHEMBL1157222, “Anxiolytic effect of natural galphimines from Galphimia glauca and their chemical derivatives” (2006)
